Holding throughout (type): physicochemical
Series [1] can be described thus: Potentiometric determination of salt (KCl) release from a monodisperse double emulsion. Here is the method: A monodisperse water-in-dodecane inverse emulsion which is stabilized with Span 80 is prepared.
The aqueous phase (80% by volume) is introduced with gentle shearing (of the order of 1000 s^−1) into a continuous phase composed of a dodecane/Span mixture (1:1 by mass). The aqueous phase comprises 1 mol per liter of potassium chloride. This salt acts as active substance which has to be released. The initial polydisperse emulsion is converted by a fractional crystallisation technique, so as to obtain a monodisperse emulsion (Bibette J., J. Colloid Interface Sci., 1991, 147, 474).
The preceding inverse emulsion is emulsified in its turn in an aqueous phase comprising a hydrophilic surface active agent (SDS). A double emulsion is thus obtained composed of oily globules comprising water droplets, which droplets result from the first stage.
The double emulsion is manufactured using a microfluidizer (Jet homogenizer from Labplant). This method consists in bringing the disperse phase and the continuous phase into contact under very high pressure and in then injecting the mixture via a hole with a small diameter (0.1 mm).
The concentration of the KCl initially incorporated in the internal aqueous phase of the double emulsion is measured in the external aqueous phase by potentiometry.
The potentiometric quantitative determination is based on the measurement of a difference in potential between an indicator electrode (Ag/AgCl) and a reference electrode (mercurous sulphate electrode) which are immersed in the colloidal solution comprising the electrolyte to be quantitatively determined (Cl^− ion). The concentration of the Cl^− ion is in this case directly related to the potential ΔE of the Ag/AgCl electrode by a relationship of the type:
ΔE=β+α log Cq (Nernst relationship).
It is then possible, via a calibration line, to know at any moment the concentration of Cl^− ion released into the external aqueous phase.
The results obtained are presented in graphical form in FIG. 1. […]

Series [2] is described as follows: Transfer of inverse-emulsion water droplets to an aqueous surfactant phase, detected by AgCl precipitate. Here is the method: In a first step, a monodisperse water-in-dodecane inverse emulsion which is stabilized with Span 80® (sorbitan monooleate from the company Sigma) is prepared. This emulsion is prepared by slowing introducing the disperse aqueous phase (80% by volume) with gentle shearing (of the order of 1000 s^−1) into a continuous phase composed of a dodecane/Span 80 mixture in a 1/1 ratio by weight. Sodium chloride NaCl (0.1M), intended to simulate the presence of the active principle in the aqueous phase A1, is added. Advantageously, it has been shown that the presence of this salt reinforces the stability of the inverse emulsion Ei (Aronson M. P., Petko M. F., J. Colloid Interface Sci., 1993, 159, 134). The initial polydisperse emulsion is converted by a fractional crystallisation technique (Bibette J., J. Colloid Interface Sci., 1991, 147, 474) into a monodisperse emulsion.
Several multiple emulsions were subsequently prepared from this inverse emulsion by mixing it with an aqueous solution comprising sodium dodecyl sulphate (SDS, HLB=40) at various concentrations below or greater than its critical micelle concentration, which is 8×10^−3 mol/l.
The test consists in carefully bringing together (over an area of 1 cm^2) equivalent volumes (1 cm^3) of the inverse emulsion and of water comprising variable amounts of SDS surfactant and a concentration of AgNO3 at a concentration of 10^−3 mol/l. The transfer of the water present in the inverse droplets to the macroscopic aqueous phase is detected by observation of an AgCl precipitate which is formed at the macroscopic interface when the internal contents transfer to the external phase. This is because, when the water droplets move via a coalescence phenomenon from the upper inverse emulsion to the lower aqueous phase, the upper phase gradually becomes transparent whereas the lower phase gradually becomes milky.
Above this limit concentration, the water droplets quickly transfer (in less than 48 hours) within the second phase. […]

The nature of series [3]: Characteristic release time by phase-contrast optical microscopy. As to conditions: assessed visually using a microscope. Here is the method: Various emulsions are prepared according to the procedure defined in Example No. 1. The concentration of the surface-active agent (SDS) present in the external aqueous phase is varied and the change over time of the double emulsion is observed with a phase-contrast optical microscope (Zeiss Axiovert 100). The curve in FIG. 2 describes the change in the characteristic release time as a function of the concentration of surface-active agent present in the external aqueous phase. The characteristic release time is defined as the time at the end of which virtually all the droplets of phase A1 have been released into the external aqueous phase A2 (by coalescence). As indicated, this time is assessed visually using a microscope. It will be noted that the release time changes from several days, when the concentration is less than 10 CMC, to only a few hours, when the concentration is equal to 40 CMC.

Series [4] can be described thus: Stability of the multiple emulsion versus surfactant concentration in the external phase (microscope). How it is done:
In this test, a multiple emulsion is prepared by dispersing the inverse emulsion in a continuous aqueous phase comprising the SDS surfactant at a concentration equal to one tenth of its critical micelle concentration. The inverse phase is the same as that described above in Example 1: the fraction by volume of water drops is present therein at a concentration of 10% by volume with 0.1 mol/l of NaCl for a concentration of surfactant of 2%. The multiple emulsion is therefore composed of 90% by volume of an external aqueous phase and of 10% of the inverse phase. A high degree of shearing, of the order of 10,000 revolutions per minute, is applied using an Ultra-turrax device for 10 seconds to a total volume of […] of the overall composition, which results in the appearance of double drops in which the water content and the size of the droplets are retained.
Double drops are observed, with each of them comprising small inverse water drops.
This test is repeated, the concentration of the surfactant within the external aqueous phase Ce being varied and the double emulsion being freshly prepared, and the duration of existence of the internal water droplets is recorded. […] This transition takes place for exactly the same concentration as that mentioned in Example 1, that is to say approximately 10 CMC. […] It is thus observed, under a microscope, that only phenomena of coalescence between the tiny inverse water drops and the interface of the direct drops are responsible for the change which is observed.
Only a gradual decrease in the concentration of internal droplets is observed.

Series [5] is described as follows: Multiple emulsions with Tween 80 in aqueous phase A2: transfer of internal water droplets. The conditions noted are these: Tween 80 as surfactant in aqueous phase A2. Here is the method:
Multiple emulsions are prepared according to the procedure described in the preceding examples by using Tween 80 in the aqueous phase A2 as surfactant. Its HLB is 15 and its critical micelle concentration is […]. The same type of result is observed. Transfer of the internal water droplets is also dependent on the concentration Ce of the surfactant in the external phase. In this case, the limit concentration is approximately 200 CMC.
It is observed for this surfactant that the internal water droplets coalesce with one another. This instability appears rapidly and results in a few internal water drops with a greater surface area, still imprisoned in the oily globules.

This is an account of results in patent US6627603B1, “Method for releasing an active principle contained a multiple emulsion” (Centre National de la Recherche Scientifiquue (C.N.R.S.), priority 1997, dated 2003).

For the molecule `CCCCCCCCCCCCOS(=O)(=O)[O-].[Na+]` [SDS, sodium dodecyl sulphate], the concentration threshold in series [1] (KCl double emulsion, globules 4 μm, droplets 0.3 μm) is on record as 10 CMC. The “time corresponding to complete release of the salt” value in series [1] (SDS concentration greater or equal to 10 CMC, KCl 1 mol per liter in internal phase, release by coalescence) is listed as “less than 500 minutes”. Moreover, the “release of the salt into the external aqueous phase” value in series [1] (SDS concentration less than 10 CMC, passive diffusion, emulsion retains its double nature) is given as “very slow”. Moreover, in series [2] (above the limit concentration (approximately 10 CMC)), the “time for transfer of the water droplets within the second phase” value is “less than 48 hours”. Also, the “concentration at which transfer via coalescence takes place” value in series [2] (same test with gentle centrifuging for 15 minutes) was determined as 10 CMC. The “limit concentration of surfactant below which the water droplets do not transfer to the second phase” value in series [2] (water-in-dodecane inverse emulsion (Span 80, NaCl 0.1M) on water with AgNO3 10^−3 mol/l, no transfer even for several days below the limit) is given as “approximately 10 CMC”. In addition, the characteristic release time entry in series [3] (SDS concentration equal to 40 CMC) is “a few hours”; in series [3] (SDS concentration less than 10 CMC) it was “several days”. Further, the “coalescence between the big double globules” value in series [4] (SDS at one tenth of its CMC in external phase, after storage for two months) is reported as “No phenomenon of coalescence”. The “period of time for conversion into a direct emulsion” value in series [4] (SDS concentration above the transition (approximately 10 CMC)) is reported as “a few hours”. Further, the “duration for which the double emulsion is retained” value in series [4] (SDS concentration below the transition (approximately 10 CMC)) is “more than one month”. Besides, the “concentration at which the double emulsion is converted into a direct emulsion (transition)” value in series [4] (freshly prepared double emulsion, NaCl 0.1 mol/l internal phase, Span 80 2%) is reported as “approximately 10 CMC”.
In the case of `CCCCCCCC/C=C\CCCCCCCC(=O)OCCOCC(OCCO)C1OCC(OCCO)C1OCCO` (stereo not shown) [Tween 80], the “limit concentration for transfer of the internal water droplets” value in series [5] is recorded as “approximately 200 CMC”.
